Laboratory results published in patent US5594012A, “Amino acid derivatives and anti-active oxygen agents” (Ajinomoto Co., Inc., priority 1992, dated 1997).

Legend:
[1] = system: lipid peroxidation in homogenate of murine swiss 3T3 cells; assay: Inhibitory effects on UV-induced lipid peroxidation (homogenate of murine swiss 3T3 cells); format: biochemical; conditions: 1 mM test compound; UVB 0.4 mW/cm^2, 90 min; pH 7.2 to 7.8; TBA, 535 nm
Protocol: Test for Inhibitory Effects on UV-induced Lipid Peroxidation
The test was carried out on the basis of the methods described in Biochim. Biophys. […] Namely, 12 μl of an aqueous sodium hydroxide solution of each of the test compounds shown in Table 5 below was added to 1.2 ml of a homogenate of murine swiss 3T3 cells (i.e. a kind of murine skin cells) prepared by a conventional method in 20 mM phosphate buffer (protein content: 1.5 to 1.8 mg/ml). The final concentration of the test compounds was adjusted to be 1 mM and the pH of the solution was adjusted to 7.2 to 7.8. If test compounds were not soluble in an aqueous sodium hydroxide solution, they were dissolved in N,N-dimethyl sulfoxide (DMSO).
This solution (1.1 ml) was irradiated with UV rays (0.4 mW/cm^2, 90 min.) using a UVB lamp "EB-280C/J" (manufactured by Spectronics). To an aliquot (1.0 ml) of this solution were successively added 0.2 ml of an aqueous solution of sodium dodecyl sulfate and 1.0 ml of an aqueous solution of thiobarbituric acid/trichloroacetic acid/hydrochloric acid, and the mixed solution was heated in a boiling water bath for 15 minutes. After ice-cooling, the solution was extracted with 1.0 ml of 1-butanol to prepare a sample for determining peroxide lipid as absorbance at a wavelength of 535 nm using a spectrophotometer "Model 320" (manufactured by Hitachi).
(§1) [formula] A1 : Absorbance when a test compound was added. A2 : Absorbance when a test compound was not added.
A3 : Absorbance when a test compound was not added and UV rays were not irradiated.

[2] = system: hydroxyl radical; assay: Inhibitory effects on hydroxyl radical formation (1) (xanthine/xanthine oxidase, deoxyribose); format: biochemical; conditions: 360 μM test compound; 36 μM ammonium iron (III) sulphate; xanthine oxidase 0.7 unit/ml; 37° C., 15 minutes; pH 7.4 to 7.8
Protocol: Test for Inhibitory Effects on Hydroxyl Radical Formation (1)
The test was carried out in accordance with the method described in FEBS Letters, Vol. 128, page 347, 1981. Namely, to 1.1 ml of a solution of 54 mM sodium chloride in 9 mM phosphate buffer (hereinafter referred to as "PBS-I") were successively added 140 μl of a solution of each of the test compounds shown in Table 6 below in PBS-1, […] of a 1 mM solution of ammonium iron (III) sulphate in hydrochloric acid, 140 μl of a solution of xanthine (manufactured by Tokyo Kasei Co.) in PBS-1, 14 μl a solution of deoxyribose (Sigma) in PBS-1 and xanthine oxidase (Sigma). The final concentrations of the test compounds, ammonium iron (III) sulphate, xanthine, deoxyribose and xanthine oxidase were adjusted to be 360 μM, 36 μM, 70 μM, 700 μM and 0.7 unit/ml, respectively. If test compounds were not soluble in PBS-1 alone, aqueous sodium hydroxide solution or DMSO was added. The pH of the solution was adjusted to 7.4 to 7.8.
. The percent inhibition of the hydroxyl radical was calculated from the following equation (2) and the results are shown in Table 6. [formula] F1 : Intensity of fluorescence when a test compound was added. F2 : Intensity of fluorescence when a test compound was added but deoxyribose was not added.
F3 : Intensity of fluorescence when a test compound was not added.
F4 : Intensity of fluorescence when neither test compound nor deoxyribose was added.

[3] = system: lipid peroxidation in murine brain homogenate; assay: Inhibitory effects on metal ion-induced lipid peroxidation (murine brain homogenate); format: biochemical, murine (C57 black mouse); conditions: 1 mM test compound; 100 μM ammonium iron (II) sulphate; 37° C., 30 minutes; pH 7.2 to 7.8
Protocol: Test for Inhibitory Effects on Metal Ion-induced Lipid Peroxidation
(§2) The test was carried out according to the method described in Method in Enzymol., Vol. 52, page 302, 1978. A C57 black mouse was killed by cervical dislocation, and the whole brain extracted from the dissected head was washed with 20 mM phosphate buffer (hereinafter referred to as "PBS-2"). Then, the brain was added with PBS-2 in an amount of 19 times its wet weight, and the mixture was disrupted and homogenized with a homogenizer "Polytron" (manufactured by Kinematica). The thus prepared 5% solution of the murine brain homogenate in PBS-2 was diluted 1:5 with fresh PBS-2. To 800 μl of the resulting 1% solution of the murine brain homogenate in PBS-2 (protein content: 0.8 to 1.0 mg/ml) were successively added 100 μl of a PBS-2 solution of each of the test compounds shown in Table 7 below and 100 μl of an aqueous solution of ammonium iron (II) sulphate. The final concentration of the test compounds and ammonium iron (II) sulphate were adjusted to be 1 mM and 100 μM, respectively. If test compounds were not soluble in PBS-2 alone, an aqueous sodium hydroxide solution or DMSO was added. The pH of the solution was adjusted to 7.2 to 7.8.
The solution after heated at 37° C. for 30 minutes was added with 2.0 ml of an aqueous solution of thiobarbituric acid/trichloroacetic acid/hydrochloric acid, and the mixture was heated in a boiling water bath for 15 minutes. After ice-cooling, the solution was extracted with 1.0 ml of 1-butanol to prepare a sample for determining the peroxide lipid in the same way as described in Test Example 1.
as §1
A3 : Absorbance when a test compound was not added and heating at 37° C. for 30 minutes was not carried out.

[4] = system: lipid peroxidation in murine brain homogenate; assay: Inhibitory effects on lipid peroxidation (murine brain homogenate); format: biochemical, murine (C57 black mouse); conditions: 30 μM test compound; no added iron; 37° C., 60 minutes; pH 7.2 to 7.8
Protocol: as §2
Test for Inhibitory Effects on Lipid Peroxidation
To 900 μl of a 5% solution of the murine brain homogenate in PBS-2 prepared in the same way as described in Test Example 3 was added 100 μl of a PBS-2 solution of each of the test compounds shown in Table 8 below. The final concentration of the test compounds was adjusted to be 30 μM. If test compounds were not soluble in PBS-2 alone, an aqueous solution of sodium hydroxide or DMSO was added. The pH of the solution was adjusted to 7.2 to 7.8.
The solution after heated at 37° C. for 60 minutes was added with 1.0 ml of an aqeuous solution of thiobarbituric acid/trichloroacetic acid/hydrochloric acid, and the mixture was heated in a boiling water bath for 15 minutes. After ice-cooling, the solution was extracted with 2.0 ml of 1-butanol to prepare a sample for determining the lipid peroxide in the same way as described in Test Example 1. […] [formula] A4 : Absorbance when a test compound was added. A5 : Absorbance when a test compound was not added.
A6 : Abosrbance when a test compound was not added and heating at 37° C. for […] was not carried out.

[5] = system: hydroxyl radical; assay: Inhibitory effects on hydroxyl radical formation (2) (iron (II)/hydrogen peroxide, DMPO, ESR); format: biochemical; conditions: 306 μM test compound; 306 μM iron (II) sulphate; 75 mM DMPO; 306 μM hydrogen peroxide; ESR within 40 seconds
Protocol: Test for Inhibitory Effects on Hydroxyl Radical Formation (2)
To 75 μl of a solution of each of the test compounds shown in Table 9 below in 0.1M phosphate buffer (hereinafter referred to as "PBS-3") were successively added 75 μl of an aqueous solution of iron (II) sulphate, 20 μl of an aqueous solution of 5,5-dimethyl-1-pyrroline-N-oxide "DMPO" (manufactured by Dojin Chemical) and 75 μl of an aqueous solution of hydrogen peroxide. […] If test compounds were not soluble in PBS-3 alone, an aqueous sodium hydroxide solution or N,N-dimethyl formamide was added.
This solution was subjected to determination for the hydroxy radical immediately (within 40 seconds), using an electron spin resonance (ESR) meter "JES-FR80S" (manufactured by Nippon Denshi).
[formula] E1 : Signal magnitude when a test compound was added. E2 : Signal magnitude when a test compound was not added.

[6] = UV absorptive activities; format: physicochemical; conditions: 100 μM in ethanol (water or DMSO added if not soluble)
Protocol: Test for UV Absorptive Activities
A solution of each of the test compounds shown in Table 10 below in ethanol was prepared for the final concentration to be 100 μM. If test compounds were not soluble in ethanol alone, water or DMSO was added.
The absorption spectrum of each sample was determined using a spectrophotometer "Model 320" (manufactured by Hitachi).

O=C(O)C(CO)N=Cc1c(O)ccc2ccccc12 (stereo not shown) [Synthesis Example 28]
% Inhibition of UV-induced lipid peroxidation [1]: 20%
% Inhibition of hydroxyl radical [2]: 19%
% Inhibition of metal ion-induced lipid peroxidation [3]: 80%
% Inhibition of lipid peroxidation [4]: 70%
% Inhibition of hydroxy radicals [5]: 56%
Wavelength (nm) of maximum absorption [6]: 307 nm
Maximum molar extinction coefficient ([6]; UVA and UVB regions): 10,000
